Like-named read-outs stand apart in the source and are kept apart here.
Key:
[1] = tested on: DU-145 prostate cancer cells (PSMA-negative); assay: Cell viability assay (MTT), dark and blue light; assay type: cell-based, Human; settings: for Photosensitizing index (PI): DU145, dark vs blue light; for SI (vs MC3T3) DU145 Blue / SI (vs NIH-3T3) DU145 Blue: blue light 458 nm
How it was run: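 Cells in RPMI with 10% FBS were treated with complexes (0.1% v/v DMSO) for 72 h in the dark, or for 8 h then irradiated 10 min with 458 nm blue LEDs (9.6 W) and kept dark to 72 h. Viability read by MTT formazan absorbance at 570 nm.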

[2] = tested on: PSMA-positive cells (C4-2b and 22Rv1); assay: Cell viability assay (MTT), summary over PSMA-positive cancer cells; assay type: cell-based, Human; settings: blue light 458 nm; read-out: GI50 mean over PSMA-positive cancer cells, irradiated
Experimental: (§1) Cells were grown in humidified incubators at 37° C. in 5% CO2. Murine MC3T3 osteoblast and NIH-3T3 fibroblast cells-used as non-tumor cell models-were cultured in a-MEM medium and DMEM medium supplemented with 10% fetal bovine serum (FBS) and 1% Penicillin/Streptomycin (P/S) antibiotics, respectively. Human T24 bladder, MGHU3 bladder, Scaber bladder, A549 lung, MCF7 breast, MiaPaCa2 pancreas cancer cells were cultured in DMEM medium supplemented with 10% FBS and 1% P/S antibiotics. Human ASPC-1 pancreas, PC-3 prostate, DU-145 prostate, C4-2B prostate and 22rV1 prostate cancer cells were cultured in RPMI medium supplemented with 10% FBS and 1% P/S antibiotics. Human Hela cervix and HepG2 liver cancer cells were cultured EMEM medium supplemented with 10% FBS and 1% P/S antibiotics.
(§2) MTT reagent (3-(4,5-dimethylthiazol-2-yl)-2,5-diphenyltetrazolium bromide) was used to determine cell death as originally described by Mosmann. […] The concentration of the complexes was calculated based on the elemental composition of the complexes determined by the elemental analyses. […] After solubilization with 500 μL of DMSO, formazan was quantified spectrophotometrically with a microplate reader at 570 nm absorbance (ClarioSTAR, BMG LabTech). […] All the results were calculated from data obtained in at least three independent experiments performed in triplicate. […]

[3] = tested on: PSMA-negative cells (PC-3 and DU145); assay: Cell viability assay (MTT), summary over PSMA-negative cancer cells; assay type: cell-based, Human; settings: blue light 458 nm; read-out: GI50 mean over PSMA-negative cancer cells, irradiated
Experimental: as §1, §2

[4] = Singlet oxygen (1O2) production, ABDA indicator, blue LED 458 nm; settings: for depletion of the ABDA absorbance at 380 nm (1O2 production): 4.5 mWcm^−2, 5-45 min, PBS pH 7.4; for consumption of ABDA (1O2 production): 4.5 mWcm^−2
Experimental: The detection of […] generation of iridium complexes was measured with 9,10-anthracenediyl-bis(methylene)dimalonic acid (ABDA) as an ^1O2 indicator and Ru(bpy)3Cl2 as a standard according to a modified reported method. Experiments were conducted using ABDA (50 μM) in phosphate buffered solution (PBS, pH 7.4), the respective iridium complex, i.e. (I-e), (I-g), (I-h), (I-j), (II-e), (II-g), (II-h), (II-j), (III-i), (III-j), (III-k), (III-h), (IV-i), (IV-j), (IV-k), (IV-h) and Ru(bpy)3Cl2 (5 μM) in a mixture of H2O/CH3CN (50/50) with a ratio ABDA/complex of […] and a final volume of 3 mL. ABDA oxidation was monitored by UV-vis spectrophotometry. The samples were irradiated with a blue custom-made LED plate (458 nm, 4.5 mWcm^−2). During irradiation UV-vis absorption spectra were recorded at 5, 10, 15, 20, 30 and 45 min. The ^1O2 generation was followed by monitoring the absorption spectral change at 380 nm of ABDA versus time.

[5] = 8 h in the dark, blue light 458 nm 10 min, then dark up to 72 h, read-out: GI50 DU145 Blue
[6] = DU145, blue light, read-out: GI50
[7] = in the dark, 72 h, read-out: GI50 DU145 Dark

SMILES	GI50 [1, 5]	GI50 [1, 6]	Photosensitizing index (PI) [1]	GI50 ([1]; DU145, dark, read-out: GI50)	SI (vs MC3T3) DU145 Blue [1]	SI (vs NIH-3T3) DU145 Blue [1]	SI (vs NIH-3T3) DU145 Dark [1]	GI50 [1, 7]	GI50 [2]	GI50 [3]	depletion of the ABDA absorbance at 380 nm (1O2 production) [4]	SI (vs MC3T3) DU145 Dark [1]	consumption of ABDA (1O2 production) [4]
F[P-](F)(F)(F)(F)F.O=C(O)CC[C@H](NC(=O)N[C@@H](CCCCNC(=O)CCn1cc[n+]2[c]1[Ir-3]13([c]4cccc5ccc6ccc[n+]1c6c45)([c]1cccc4ccc5ccc[n+]3c5c14)[n+]1ccccc1-2)C(=O)O)C(=O)O [III-i]	8.2 µM	8.16 µM	5.6	45.3 µM	5.0	6.8	>2.2	45.3 µM	–	–	–	–	–
F[P-](F)(F)(F)(F)F.O=C(O)CC[C@H](NC(=O)N[C@@H](CCCCNC(=O)CCn1cc[n+]2[c]1[Ir-3]13([c]4ccccc4-c4sc5ccccc5[n+]41)([c]1ccccc1-c1sc4ccccc4[n+]13)[n+]1ccccc1-2)C(=O)O)C(=O)O [III-k]	2.2 µM	2.18 µM	7.5	16.3 µM	15.5	13.8	>6.1	16.3 µM	310 nM	1600 nM	–	–	–
F[P-](F)(F)(F)(F)F.O=C(O)CC[C@H](NC(=O)N[C@@H](CCCCNC(=O)CCn1cc[n+]2[c]1[Ir-3]13([c]4ccccc4-c4c5ccccc5cc[n+]41)([c]1ccccc1-c1c4ccccc4cc[n+]13)[n+]1ccccc1-2)C(=O)O)C(=O)O [III-h]	1.41 µM	1.41 µM	18.5	26.1 µM	5.9	–	>3.8	26.1 µM	310 nM	1600 nM	fast depletion of the ABDA absorbance at 380 nm	2.0	–
F[P-](F)(F)(F)(F)F.O=C(O)CC[C@H](NC(=O)N[C@@H](CCCCNC(=O)CCn1cc[n+]2[c]1[Ir-3]13([c]4c(sc5ccccc45)-c4cccc[n+]41)([c]1c(sc4ccccc14)-c1cccc[n+]13)[n+]1ccccc1-2)C(=O)O)C(=O)O [III-j]	1.4 µM	1.35 µM	151.9	205 µM	9.3	8.0	–	205 µM	–	–	fast depletion of the ABDA absorbance at 380 nm	>1.2	fast complete consumption of ABDA
F[P-](F)(F)(F)(F)F.O=C(NCCCn1cc[n+]2[c]1[Ir-3]13([c]4c(sc5ccccc45)-c4cccc[n+]41)([c]1c(sc4ccccc14)-c1cccc[n+]13)[n+]1ccccc1-2)[c-]1cccc1.[Fe+2].c1cc[cH-]c1 [IV-j]	–	–	–	–	–	–	–	–	–	–	fast depletion of the ABDA absorbance at 380 nm	–	fast complete consumption of ABDA

Reference: US20260209260A1, “VECTORIZED NHC IRIDIUM(III) COMPLEXES AND USE THEREOF IN PHOTODYNAMIC THERAPY AND/OR DIAGNOSTIC” (CENTRE NATIONAL DE LA RECHERCHE SCIENTIFIQUE, priority 2022, published 2026)
